In one data set the target is T1, nucleoside hydrolase (Crithidia fasciculata, UniProt Q27546).
T1 construct: nucleoside hydrolase was purified from C. fasciculata as described above; endogenous in cells; host or cells: Crithidia fasciculata cells grown in a 300-liter fermenter
T1 sequence (Q27546 1-315): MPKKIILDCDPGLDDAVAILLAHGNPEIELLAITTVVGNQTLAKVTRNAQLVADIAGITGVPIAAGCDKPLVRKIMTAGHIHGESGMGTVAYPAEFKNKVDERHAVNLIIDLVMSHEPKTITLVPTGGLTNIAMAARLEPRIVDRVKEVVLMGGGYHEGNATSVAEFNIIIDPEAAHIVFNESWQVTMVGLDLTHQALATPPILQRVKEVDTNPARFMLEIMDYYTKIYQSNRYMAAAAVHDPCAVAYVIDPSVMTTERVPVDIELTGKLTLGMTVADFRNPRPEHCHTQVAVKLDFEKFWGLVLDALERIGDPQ
Description: Inhibition of nucleoside hydrolase, inosine hydrolysis monitored at 280 nm, bis-tris pH 7.3. The data set is classed as biochemical. As for the experimental part:
All assays were performed at 30° C. in 50 mM bis-tris buffer at pH 7.3. The substrate for all assays was inosine. Inhibition studies were performed by examining the initial velocity of the hydrolysis of inosine as a function of inosine concentration and (2S)-phenyl-(3S,4R)-dihydroxy-(5R)-hydroxymethylpyrrolidine concentration. A total of 75 velocity measurements were made.
The general protocol for measurement was as follows: various concentrations of inosine and inhibitor in the above buffer were prepared, and 1.0 mL aliquots placed in a quartz cuvette and equilibrated at 30° C. […] The decrease in absorption at 280 nm was monitored over a 10 minute period.

Data set [1] deals with T2, IU-nucleoside hydrolase (Crithidia fasciculata, UniProt Q27546, P2A).
T2 construct: contained the coding region for the enzyme; made in house; host or cells: E. coli BL21 (DE3)pLysS, pET3d plasmid
As to conditions: cited from earlier work.

Data set [2] deals with T2, IU-nucleoside hydrolase. Description: biochemical. The data set is classed as biochemical, C. fasciculata. Conditions: for inhibition pattern: minimum of four substrate and three inhibitor concentrations. An excerpt: Enzymes. Inosine-uridine nucleoside hydrolase (IU-nucleoside hydrolase) was purified from extracts of E. coli strain BL21 (DE3)pLysS which contained the coding region for the enzyme isolated from C. fasciculata in a pET3d expression plasmid. The DNA coding for the enzyme was placed in the NcoI-BamHI site. This construct gives a Pro2Ala substitution which has no significant effect on the kinetic properties of the purified enzyme. The overexpressed enzyme was purified to apparent homogeneity as previously described (Gopaul, et al. (1996) Biochemistry 35, 5963-5970).
(§1) Enzyme Assays. Initial rate measurements were accomplished at 30° C. in reaction mixtures containing 50 mM potassium phosphate, pH 7.5, or 50 mM Hepes, pH 8.0, and nitrophenylribose or inosine as substrates (Mazella, et al. (1996) J. Am. Chem. Soc. 118, 2111-2112). At pH 7.5 the product p-nitrophenylate anion is present at a concentration which gives a millimolar extinction coefficient of 9.3 cm^-1 at 400 nm. Reaction mixtures with nitrophenylribose as substrate were initiated by the addition of enzyme, and product formation was monitored by continuous recording at 400 nm. With inosine as substrate, the conversion to hypoxanthine was monitored continuously at 280 nm (Parkin, et al. (1991) J. Biol. Chem. 266, 20658-20665). […] The remainder of the inhibitors were analyzed at one fixed substrate concentration and variable inhibitor concentrations. Inhibition constants for IAG-nucleoside hydrolase were established from full kinetic analysis with V and X as inhibitors. […] The remainder of the inhibition constants were characterized by titration of assay mixtures containing a fixed concentration of substrate with variable inhibitor concentrations. […] For Ki determination at a fixed substrate concentration, this approach assumes that substrate and inhibitor compete for the catalytic site.
Inhibitors. Iminoribitol inhibitor were synthesized and purified according to the methods of Furneaux, et al. (Tetrahedron (1997) in press), characterized by NMR, dissolved in H2 O and stored at -20° C. The compounds are enzymatically and chemically stable in H2 O and under conditions of the assay. IU-Nucleoside hydrolase is susceptible to slow-onset tight-binding inhibition under certain conditions (Horenstein & Schramm, (1993b) Biochemistry 32, 9917-9925, Boutellier, et al. (1994) Biochemistry, 33, 3994-4000). However, in the initial reaction rate conditions described here, only the rapidly reversible competition between substrate and inhibitor is being observed. Thus, the reported kinetic constants are dissociation constants which exclude slow-onset binding.

The next data set concerns the target IAG-nucleoside hydrolase (Trypanosoma brucei, UniProt Q57ZL6). Description: Inhibition of IAG-nucleoside hydrolase, initial rates. As to conditions: for Km /Ki IAG-nucleoside hydrolase: comparison with inosine; for inhibition pattern: full kinetic analysis. The procedure: The enzyme was purified to apparent homogeneity as determined by denaturing polyacrylamide gel electrophoresis (Parkin, (1996) J. Biol. Chem. 271, 21713-21719). Some of the studies used the T. brucei brucei enzyme which was overexpressed in E. coli.
as §1, with “concentrations.” for “concentrations. Inhibition constants for IAG-nucleoside hydrolase were established from full kinetic analysis with V and X as inhibitors.”
Inhibitors. Iminoribitol inhibitor were synthesized and purified according to the methods of Furneaux, et al. (Tetrahedron (1997) in press), characterized by NMR, dissolved in H2 O and stored at -20° C.

Substrate in data set [3]: OC[C@H]1O[C@@H](n2cnc3c(O)ncnc32)[C@H](O)[C@@H]1O
Description: purified protein, by the assay type. As to conditions: other: inosine as substrate; 30.0 °C.
Description: The IAG-nucleoside hydrolase was purified from the blood-stream form of T. brucei brucei (ILTaT 1.1) grown in sublethally irradiated (650 rads) Sprague-Dawley rats. The enzyme was purified to apparent homogeneity as determined by denaturing polyacrylamide gel electrophoresis (Parkin, (1996) J. Biol. Chem. 271, 21713-21719). Some of the studies used the T. brucei brucei enzyme which was overexpressed in E. coli.
At pH 7.5 the product p-nitrophenylate anion is present at a concentration which gives a millimolar extinction coefficient of 9.3 cm^-1 at 400 nm. Reaction mixtures with nitrophenylribose as substrate were initiated by the addition of enzyme, and product formation was monitored by continuous recording at 400 nm. […] The remainder of the inhibitors were analyzed at one fixed substrate concentration and variable inhibitor concentrations. […] The remainder of the inhibition constants were characterized by titration of assay mixtures containing a fixed concentration of substrate with variable inhibitor concentrations. […] For Ki determination at a fixed substrate concentration, this approach assumes that substrate and inhibitor compete for the catalytic site. In these cases, data were fit to the equation: 1/v=1/kcat +(Km /kcat A)(1+I/Ki)
The compounds are enzymatically and chemically stable in H2 O and under conditions of the assay. […]

The mark [4] stands for this setting: KI IU-nucleoside hydrolase, Table V.

Where two headings read alike, the source gives them in different places.

T2 sequence (Q27546 whole entry P2A): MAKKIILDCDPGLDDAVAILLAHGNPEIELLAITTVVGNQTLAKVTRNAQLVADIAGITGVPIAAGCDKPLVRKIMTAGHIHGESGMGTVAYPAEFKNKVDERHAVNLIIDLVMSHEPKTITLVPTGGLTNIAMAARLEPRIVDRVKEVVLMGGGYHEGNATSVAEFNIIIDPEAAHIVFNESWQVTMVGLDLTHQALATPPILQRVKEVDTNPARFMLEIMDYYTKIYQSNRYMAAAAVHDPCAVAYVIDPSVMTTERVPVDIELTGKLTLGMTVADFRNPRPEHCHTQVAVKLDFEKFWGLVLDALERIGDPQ

Consider `OC[C@H]1N[C@@H](c2ccccc2)[C@H](O)[C@@H]1O` [(2S)-phenyl-(3S,4R)-dihydroxy-(5R)-hydroxymethyl-pyrrolidine], for which, on nucleoside hydrolase, the “binding better than the substrate inosine” value was “approximately 2,000 fold” and the inhibition pattern entry is “competitive inhibition pattern”. Besides, the Ki on nucleoside hydrolase (read-out: inhibition constant) was 0.15 µM.

`OC[C@H]1NC[C@H](O)[C@@H]1O` [I]: the Ki on IU-nucleoside hydrolase [1] (Table V, from Horenstein and Schramm (1993b), read-out: KI IU-nucleoside hydrolase) is 4.5 ± 0.4 µM; at IAG-nucleoside hydrolase, 44 ± 4 µM. Moreover, at IU-nucleoside hydrolase [2], the inhibition pattern result is on record as “slope-linear competitive inhibitors”. Besides, on IAG-nucleoside hydrolase, the “Km /KI IAG-nucleoside hydrolase” value is on record as 0.41.

`OC[C@H]1N[C@@H](c2ccccc2)[C@H](O)[C@@H]1O` [V, phenyliminoribitol]: the Ki on IU-nucleoside hydrolase [1] (read-out: KI IU-nucleoside hydrolase, from Horenstein and Schramm (1993b)) is 0.3 µM; at IU-nucleoside hydrolase [1] (read-out: Ki IU-nucleoside hydrolase, Table VI, taken from Horenstein and Schramm (1993b)), 0.3 µM; on IAG-nucleoside hydrolase it was 180 µM. Further, the values for the inhibition pattern result on IU-nucleoside hydrolase [2] and at IAG-nucleoside hydrolase were “slope-linear competitive inhibitors” and “competitive inhibition”, respectively. Also, on IAG-nucleoside hydrolase, the “Km /KI IAG-nucleoside hydrolase” value came out at 0.1. The “Km /Ki IAG-nucleoside hydrolase” value at IAG-nucleoside hydrolase (Table VI) amounted to 0.1.

Turning to `OC[C@H]1N[C@@H](c2ccc(O)cc2)[C@H](O)[C@@H]1O` [VII], the Ki at IU-nucleoside hydrolase [2] (setting [4]) is 0.075 ± 0.004 µM; on IAG-nucleoside hydrolase, 35 ± 2 µM. At IAG-nucleoside hydrolase, the “Km /KI IAG-nucleoside hydrolase” value is 0.51.

Turning to `O=C(O)c1ccc([C@@H]2N[C@H](CO)[C@@H](O)[C@H]2O)cc1` [VI], on IU-nucleoside hydrolase [2] (setting [4]), the Ki is 0.096 ± 0.007 µM. Further, on IAG-nucleoside hydrolase, the Ki was over 480 µM and the “Km /KI IAG-nucleoside hydrolase” value is reported as under 0.04. In addition, on IAG-nucleoside hydrolase (80, 120, 120 and 160 μM II, III, IV and VI respectively, 75 μM inosine), the “inhibition at highest concentration tested” value is “NO inhibition was observed”.

`OC[C@H]1O[C@@H](c2ccccc2)[C@H](O)[C@@H]1O` [XIII, 1-deoxy-1-C-phenyl-β-D-ribofuranose, reference compound]: the Ki at IU-nucleoside hydrolase [2] (Ki IU-nucleoside hydrolase, Table VI, 58 μM nitrophenylriboside, 50 mM Hepes, pH 8.0) is 600 µM; on IU-nucleoside hydrolase [2] (inhibition constant IU-enzyme, text b399, unit inferred), 1600 µM; at IAG-nucleoside hydrolase it was over 30000 µM; on IAG-nucleoside hydrolase (read-out: Ki IAG-nucleoside hydrolase, Table VI, XIII: 560 μM nitrophenylriboside, 50 mM Hepes, pH 8.0, lower limit) it was over 30000 µM. The “decline of affinity relative to inosine” value at IAG-nucleoside hydrolase is on record as over 1670 fold. For the same molecule, the “binding / inhibition at 10 mM” value on IAG-nucleoside hydrolase (10 mM XIII) is “no binding can be detected”. For the same molecule, at IAG-nucleoside hydrolase (Table VI), the “Km /Ki IAG-nucleoside hydrolase” value is under 0.0006.

Consider `OC[C@H]1N[C@@H](c2ccc(Br)cc2)[C@H](O)[C@@H]1O` [XII], for which the values for the Ki at IU-nucleoside hydrolase [2] (setting [4]) and on IAG-nucleoside hydrolase were 0.028 ± 0.004 µM and 113 ± 5 µM, respectively. Moreover, the inhibition pattern entry at IU-nucleoside hydrolase [2] was “slope-linear competitive inhibitors”. Besides, the “Km /KI IAG-nucleoside hydrolase” value on IAG-nucleoside hydrolase came out at 0.16.

In the case of `OC[C@H]1N[C@@H](c2ccc(Cl)cc2)[C@H](O)[C@@H]1O` [XI], the Ki on IU-nucleoside hydrolase [2] (setting [4]) came to 0.03 ± 0.0014 µM. Moreover, the inhibition pattern result at IU-nucleoside hydrolase [2] was “slope-linear competitive inhibitors”. Also, at IAG-nucleoside hydrolase, the Ki was determined as 190 ± 8 µM and the “Km /KI IAG-nucleoside hydrolase” value came out at 0.095.

As to `Nc1ccc([C@@H]2N[C@H](CO)[C@@H](O)[C@H]2O)cc1` [X], on IU-nucleoside hydrolase [2] (setting [4]), the Ki was determined as 0.03 ± 0.002 µM. For the same molecule, on IAG-nucleoside hydrolase, the Ki turned out to be 12 ± 1 µM; the “Km /KI IAG-nucleoside hydrolase” value was found to be 1.5; the “binding compared to inosine” value is reported as “binds as well as the preferred substrate, inosine”; the inhibition pattern entry was “competitive inhibition”.

B1: IAG-nucleoside hydrolase (Trypanosoma brucei brucei TREU927) (protein)
chain: MAKTVILDHDGNKDDFVAMILLLSNPKKVNLIGCICTDADCFVENGFDVTGKIMCAMHRLIKTPLFPIGKSTATAVNAFPTEWRFSAKNLDDMPFLNIVEDVALWEKLKPENEAHNGQQLLADLVMKSKEKVTVCVTGPLSNMAWCIEKYGEAFTSKVEECVIMGGAVDVGGNVFLPTTDGSAEWNIYWDPPAAKKVLCCPNIRCVLFSLDATNTVPVRSVDVKGFGAQNQYLLSQMVGTMWAMSTHEEILRDGDAYYAWDALTAAYILEPTIATLEPVALDVDVSKGKSEGRTPRASGEGKPCVHVARNPSKQMFHDLVFASTRVC
As for B1, the Michaelis-Menten constant (Km) (as a rule, the concentration of substrate that gives half-maximal velocity) in data set [3] came out at 18 ± 1 µM.

The record behind these values is US6121296A, “Transition-state inhibitors for nucleoside hydrolase and transferase reactions” (Albert Einstein College of Medicine of Yeshiva University, priority 1998, dated 2000).
